Data reported in patent publication US12653872B2, “Mimotopes of alpha-synuclein and vaccines thereof for the treatment of synucleinopathy” (AC Immune SA, priority 2008, dated 2026).
Each block holds one substance with its values, some of them ahead of it.

Columns and labels:
[1] = tested on: monoclonal antibody specific for human alpha-synuclein at position 115-122 (AFFiRiS3/9, A509); test: In vitro inhibition assay (ELISA): peptide competes with binding of the antibody to the coated original epitope; design: species or system mouse; conditions: for Inhibition: competition code, OD at 40 μg peptide compared to original peptide; for competition in inhibition ELISA: 40 μg peptide, compared to original peptide p4448, FIG. 3
Procedure: 2. In Vitro Inhibition Assay (ELISA)
Different amounts of peptides (concentrations ranging from 40 μg to 0.3 μg (serial dilutions), as indicated in the respective figures) derived from Phage Display were incubated with the monoclonal antibody that was used for the screening procedure. Peptides diminishing subsequent binding of the antibody to the original human alpha-synuclein epitope (amino acids: 115-122 of human alpha-synuclein protein) coated on ELISA plates were considered as inhibiting in this assay.
Weak inhibition means more peptide is required to lower AB binding than with the original epitope; strong inhibition means similar peptide amounts are required for mimotope and original epitope for lowering AB binding. Mimotopes are compared to the original peptide as standard. OD at 40 μg peptide used in the assay is used to calculate the competition capacity compared to original peptide.

[2] = tested on: monoclonal antibody specific for human alpha-synuclein at position 115-122 (AFFiRiS3/9, A509); test: In vitro binding assay (ELISA): peptide-BSA on plate, incubated with the screening monoclonal antibody; design: species or system mouse; conditions: FIG. 1 and FIG. 2
Excerpt: 1. In Vitro Binding Assay (ELISA)

[3] = tested on: injected peptide (peptide-BSA conjugate); test: Mimotope-KLH vaccination of mice: serum titer against injected peptide (ELISA); format: in vivo, C57/Bl6 mice; conditions: for immune response against injected peptide: C57/Bl6 mice, 30 μg peptide-KLH s.c., alum, repeated vaccination; for titers upon vaccination of mice: FIG. 2 legend
Procedure: (§1) Inhibiting as well as non-inhibiting peptides were coupled to KLH and injected into mice (wildtype C57/Bl6 mice; subcutaneous injection into the flank) together with an appropriate adjuvant (aluminium hydroxide). Animals were vaccinated 4-6 times in biweekly intervals and sera were taken biweekly as well. Titers to injected peptides as well as to an irrelevant peptide were determined with every serum. Titers against the recombinant human alpha-synuclein protein and recombinant human beta-synuclein were determined starting with Serum 3 respectively. Pooled sera were tested against the original human alpha-synuclein epitope (aa115-122). In general sera were analysed by reaction against peptides coupled to Bovine Serum Albumin (BSA) and recombinant full length proteins which were immobilised on ELISA plates. Titers were determined using anti mouse IgG specific antibodies. For detailed results see FIGS. 4A, 4B, 5A and 5B.
(§2) Female C57/Bl6 mice, 5-6 mice per group, were subcutaneously immunized with 30 μg peptide coupled to KLH. Control groups were administered p4448-KLH conjugate. As adjuvant alum was used (always 1 mg per mouse). […] The in vitro ELISA assay to determine the antibody titer was performed with sera of single mice or pooled sera (see FIGS. 5A and 5B) after each vaccination in a two week interval (see FIGS. 4A, 4B, 5A and 5B, respectively). The wells of the ELISA plate were coated with mimotope-BSA conjugate and an irrelevant peptide-BSA conjugate (negative control). The positive control was performed by reaction of the parental antibody with the respective mimotope-BSA conjugate. The detection was performed with anti-mouse IgG. Additionally, recombinant proteins were immobilised on ELISA plates and sera reacted accordingly.

[4] = tested on: irrelevant peptide p1253; test: Mimotope-KLH vaccination of mice: serum titer against irrelevant peptide (ELISA); format: in vivo; conditions: C57/Bl6 mice, alum
Procedure: as §1, §2

[5] = tested on: recombinant human alpha-synuclein protein; test: Mimotope-KLH vaccination of mice: serum titer against recombinant alpha-synuclein (ELISA); format: in vivo, C57/Bl6 mice; conditions: pooled sera after 4 vaccinations; FIG. 5B
Procedure: as §1, §2

[6] = tested on: recombinant human beta-synuclein; test: Mimotope-KLH vaccination of mice: serum titer against recombinant beta-synuclein (ELISA); format: in vivo, C57/Bl6 mice; conditions: pooled sera after 4 vaccinations, FIG. 5B
Procedure: as §1, §2

[7] = tested on: human a-syn on brain sections of mice overexpressing human a-syn; test: In situ testing: immunohistochemistry with mimotope-induced sera on mouse brain sections; conditions: for potential to induce a-syn specific antibodies: vaccines based on the peptide
Procedure: Selected sera eliciting an a-syn cross reactivity were also tested for the ability to detect human a-syn on mouse brain sections in situ. For detailed results see FIGS. 6A, 6B and 6C.
Mimotopes eliciting an a-syn specific immune response can also detect a-syn immunoreactive inclusions in transgenic mouse brain tissue. As depicted in FIGS. 6A, 6B and 6C, sera derived from mimotope vaccinated animals are able to stain a-syn positive structures present on mouse brain sections from animals overexpressing human a-syn. Briefly, sera positive for human a-syn reactivity in ELISA have been used for immunohistochemistry (IHC). Paraffin embedded […] sections of mouse brain, mounted on Superfrost Plus glass slides, were subjected to IHC. Sections were incubated with sera (dilution 1:100 and 1:400 in PBS) and subsequently stained according to standard protocols for immunohistochemistry using VECTASTAIN™ ABC Systems (which is an Avidin-Biotin Complex Immunohistochemical Staining Kit from Vector Laboratories), DAB and MOM blocking (all reactions have been performed using commercially available reagents obtained from Vector labs respectively and have been performed according to manufacturer's protocols). Counterstaining was performed with Haematoxylin. Slides were mounted in Entellan and subsequently documented using conventional brightfield microscopy. A monoclonal antibody specific for human a-syn (LB509, Covance) has been used as a positive control for synuclein detection at a final dilution of 1/250.

Substance: CDAPVTPDT [p4563]
- Inhibition [1]: 1 (Weaker than original epitope (OD of 40 μg peptide below 5 times of original peptide))

Substance: CDAPVYPDG [p4570]
- Inhibition [1]: 1 (Weaker than original epitope (OD of 40 μg peptide below 5 times of original peptide))

Substance: CDHPVHPDS [p4554]
- Inhibition [1]: 1 (Weaker than original epitope (OD of 40 μg peptide below 5 times of original peptide))

Substance: CDHPVTPDR [p4559]
- Inhibition [1]: 1 (Weaker than original epitope (OD of 40 μg peptide below 5 times of original peptide))

Substance: CDLPVTPDR [p4566]
- Inhibition [1]: 1 (Weaker than original epitope (OD of 40 μg peptide below 5 times of original peptide))

Substance: CDMPVDPDN [p4448, reference compound]
- binding to / detection by the monoclonal antibody in ELISA [2]: are detected by the antibody
- immune response against injected peptide [3]: elicited immune responses against the injected peptide
- immune response against unrelated sequence p1253 [4]: failed to induce an unspecific immune response
- reactivity of induced sera with alpha-synuclein [5]: show titers against alpha-synuclein
- reactivity of induced sera with beta-synuclein [6]: detect alpha and beta-synuclein
- reactivity of induced sera with beta-synuclein ([6]; listed as original epitope): also detected the full length beta-synuclein protein

- binding to / detection by the monoclonal antibody in ELISA [2]: are not detected
Substance: CDMPVDPGS [p4450]

Substance: CDMPVLPD [p4457]
- reactivity of induced sera with alpha-synuclein [5]: show titers against alpha-synuclein

Substance: CDMPVLPDG [p4497]
- Inhibition [1]: 1 (Weaker than original epitope (OD of 40 μg peptide below 5 times of original peptide))

Substance: CDMPVLPDN [p4463]
- Inhibition [1]: 2 (strong inhibition (as original epitope; OD of 40 μg peptide below 2 times of original peptide))
- reactivity of induced sera with alpha-synuclein [5]: show titers against alpha-synuclein

Substance: CDMPVSPDR [p4555]
- Inhibition [1]: 1 (Weaker than original epitope (OD of 40 μg peptide below 5 times of original peptide))

Substance: CDMPVTPDT [p4562]
- Inhibition [1]: 2 (strong inhibition (as original epitope; OD of 40 μg peptide below 2 times of original peptide))
- potential to induce a-syn specific antibodies [7]: potential to induce a-syn specific antibodies

Substance: CDMPVWPDG [p4569]
- Inhibition [1]: 1 (Weaker than original epitope (OD of 40 μg peptide below 5 times of original peptide))

Substance: CDNPVHPEN [p4492]
- competition in inhibition ELISA [1]: do not show competition

Substance: CDQPVLPD [p4456]
- immune response against injected peptide [3]: elicited immune responses against the injected peptide
- immune response against unrelated sequence p1253 [4]: failed to induce an unspecific immune response
- potential to induce a-syn specific antibodies [7]: potential to induce a-syn specific antibodies

Substance: CDQPVLPDG [p4496]
- Inhibition [1]: 1 (Weaker than original epitope (OD of 40 μg peptide below 5 times of original peptide))

Substance: CDQPVLPDN [p4462]
- Inhibition [1]: 2 (strong inhibition (as original epitope; OD of 40 μg peptide below 2 times of original peptide))

Substance: CDQPVYPDI [p4557]
- binding to / detection by the monoclonal antibody in ELISA [2]: weaker binding than the original peptide p4448
- Inhibition [1]: 1 (Weaker than original epitope (OD of 40 μg peptide below 5 times of original peptide))
- titers upon vaccination of mice [3]: > 1/20000

Substance: CDRPVAPEG [p4553]
- binding to / detection by the monoclonal antibody in ELISA [2]: strong binding
- titers upon vaccination of mice [3]: > 1/20000

Substance: CDRPVQPDR [p4571]
- Inhibition [1]: 1 (Weaker than original epitope (OD of 40 μg peptide below 5 times of original peptide))

Substance: CDRPVTPDN [p4491]
- competition in inhibition ELISA [1]: show similar competition as the original peptide p4448
- Inhibition [1]: 7

Substance: CDRPVYPDI [p4558]
- Inhibition [1]: 2 (strong inhibition (as original epitope; OD of 40 μg peptide below 2 times of original peptide))

Substance: CDSPVHPDT [p4567]
- Inhibition [1]: 1 (Weaker than original epitope (OD of 40 μg peptide below 5 times of original peptide))

Substance: CDSPVLPDG [p4498]
- Inhibition [1]: 1 (Weaker than original epitope (OD of 40 μg peptide below 5 times of original peptide))
- a-syn staining by induced serum in immunohistochemistry ([7]; murine hippocampus, human a-syn transgenic, sera diluted 1:100 and 1:400, FIG. 6C): specific a-syn staining similar to the staining present in FIG. 6A
- potential to induce a-syn specific antibodies [7]: potential to induce a-syn specific antibodies

Substance: CDSPVLPDN [p4464]
- Inhibition [1]: 2 (strong inhibition (as original epitope; OD of 40 μg peptide below 2 times of original peptide))

Substance: CDSPVVPDN [p4564]
- Inhibition [1]: 1 (Weaker than original epitope (OD of 40 μg peptide below 5 times of original peptide))

Substance: CDSPVWAEN [p4466]
- immune response against injected peptide [3]: elicited immune responses against the injected peptide
- immune response against unrelated sequence p1253 [4]: failed to induce an unspecific immune response

Substance: CDTPVIPDN [p4495]
- Inhibition [1]: 1 (Weaker than original epitope (OD of 40 μg peptide below 5 times of original peptide))

Substance: CDTPVLAEN [p4467]
- immune response against injected peptide [3]: elicited immune responses against the injected peptide
- immune response against unrelated sequence p1253 [4]: failed to induce an unspecific immune response

Substance: CDTPVLPDS [p4561]
- Inhibition [1]: 2 (strong inhibition (as original epitope; OD of 40 μg peptide below 2 times of original peptide))

Substance: CDTPVYPDN [p4494]
- Inhibition [1]: 2 (strong inhibition (as original epitope; OD of 40 μg peptide below 2 times of original peptide))

Substance: CDVPVLPDN [p4493]
- Inhibition [1]: 2 (strong inhibition (as original epitope; OD of 40 μg peptide below 2 times of original peptide))

Substance: CEMPVDPDN [P4648]
- Inhibition [1]: 1 (Weaker than original epitope (OD of 40 μg peptide below 5 times of original peptide))

Substance: CHDRPVTPDN [p4490]
- competition in inhibition ELISA [1]: show similar competition as the original peptide p4448
- Inhibition [1]: 2 (strong inhibition (as original epitope; OD of 40 μg peptide below 2 times of original peptide))

Substance: CYDRPVQPDR [p4572]
- Inhibition [1]: 1 (Weaker than original epitope (OD of 40 μg peptide below 5 times of original peptide))

Substance: DMPVDPDN
- reactivity of induced sera with beta-synuclein [6]: did not distinguish between the two recombinant synuclein proteins

- binding to / detection by the monoclonal antibody in ELISA [2]: are detected by the antibody
Substance: DMPVDPDNC [p4449]

- binding to / detection by the monoclonal antibody in ELISA [2]: are not detected
Substance: DMPVDPGSC [p4451]

Substance: DMPVLPDC [p4641]
- Inhibition [1]: 2 (strong inhibition (as original epitope; OD of 40 μg peptide below 2 times of original peptide))

Substance: DQPVLPDC [p4640]
- Inhibition [1]: 2 (strong inhibition (as original epitope; OD of 40 μg peptide below 2 times of original peptide))

- binding to / detection by the monoclonal antibody in ELISA [2]: are not detected
Substance: p4447: Human beta-syn (Full length; NCBI Acc. No. NP_001001502)
